The results in this text go back to article PMC11982498 (Redox Biology, 2025).

Test [1] relates to BCL-2 promoter G-quadruplex. Nature of the test: CD melting experiment, BCL-2 G-quadruplex. It is filed as binding. As to conditions: Tris-HCl buffer pH 7.4; 20 equivalents (20 μM) compound. As for the experimental part: CD-melting experiment was carried out following a published method without significant modification. BCL-2 promoter i-motif and G-quadruplex structures at a concentration of 5 μM were annealed in buffer at 95 °C for 10 min, and then cooled to room temperature. The annealed samples were incubated with B14 for 6 h, and then molar ellipticity at 287 nm for i-motif structure or 260 nm for G-quadruplex structure, where the CD value was the highest in our experiment, was measured over a temperature range of 20–90 °C at a heating rate of 0.5 °C/min. Tm values were determined and calculated through nonlinear regression curve fitting with software GraphPad Prism 9.0. (GraphPad Software Inc., California, USA).
Figure S6. CD melting experiments were performed to examine the effects of B14 and A22 on BCL-2 promoter i-motif and G-quadruplex. (A-H) CD melting experiments were performed for BCL-2 promoter i-motif or G-quadruplex in the absence or presence of B14 (2, 5, 20 equivalents) and A22 (20 equivalents). The oligonucleotide for BCL-2 i-motif was annealed in 1 X BPES buffer at pH 5.5, while the oligonucleotide for BCL-2 G-quadruplex was annealed in 20 mM Tris-HCl buffer with 20 mM NaCl at pH 7.4. The ΔTm values for the effects of B14 and A22 on BCL-2 promoter i-motif were determined to be 11.26 °C and 11.82 °C, respectively. […]

The next test addresses T1, Aβ1-42 (Homo sapiens, UniProt P05067).
T1 construct: Aβ1-42 was purchased from Gill Biochemicals Ltd (Shanghai, China); purchased Gill Biochemicals Ltd (Shanghai, China)
In words: Circular dichroism of Aβ1-42 secondary structure. It is filed as biochemical. As to conditions: 20 μM compound, 72 h. The procedure: The circular dichroism (CD) experiment was performed to investigate the effect of B14 (20 μM) or Curcumin (20 μM) on the change of Aβ1-42 secondary structure. The Aβ1-42 solutions (100 μM) were co-incubated with B14 (20 μM) or Curcumin (20 μM) at 37 °C for 72h. Ellipticity changes of Aβ1-42 were monitored employing a Chirascan CD spectropolarimeter (Chirascan, England).
Circular dichroism (CD) experiment was performed to investigate the effect of B14 (20 μM) and Curcumin (20 μM) on the change of Aβ1-42 secondary structure. The Aβ1-42 solutions (100 μM) were co-incubated with B14 (20 μM) and Curcumin (20 μM) at 37 °C for 72h. Ellipticity changes of Aβ1-42 were monitored employing a Chirascan CD spectropolarimeter (Applied Photophysics, UK).

Another test has as its target (G2C4)6 promoter i-motif. Nature of the test: SPR binding to (G2C4)6 promoter i-motif. As to conditions: MES buffer pH 5.5.
Test [2] deals with MDA, SOD, GSH-Px, CAT in hippocampus of APP/PS1 mice. Nature of the test: Biochemical parameters analysis (oxidative stress) in hippocampus. It is filed as in vivo. The text has this: Five months old male APP/PS1 mice, weighing 25–33 g, were purchased from Guangdong Medical Laboratory Animal Center and housed in the Laboratory Animal Center of Sun Yat-sen University (Guangzhou, China) for experimentation. All procedures were approved by the Animal Care and Use Committee of Sun Yat-sen University and complied with legal requirements and national guidelines for the care and maintenance of laboratory animals (Approval No. SYSU-IACUC-2024-002032). The mice were housed in a specific pathogen-free environment with a controlled temperature of 22 ± 1 °C and a 12-h dark/light cycle. The mice were fed with a standard diet, and 30 mice were randomly divided into 6 groups (N = 5). Compound B14 was dissolved in saline and administered at doses of 10, 20, or 40 mg/kg. APP/PS1 male mice were grown until 6 months of age, and then injected intraperitoneally with compound B14 every other day for 60 days. […]
The hippocampi were homogenized in normal saline containing protease inhibitors. The homogenate was centrifuged at 2500 rpm for 10 min, and the protein concentration in the supernatant was measured by using the bicinchoninic acid (BCA, Beyotime, Jiangsu, China) method. The levels of malondialdehyde (MDA) and the activities of superoxide dismutase (SOD), glutathione peroxidase (GSH-Px) and […] (CAT) were determined by using relevant assay kits (Beyotime, Jiangsu, China).

For test [3], the system named is F-BCL-2 (BCL-2 IM) (DNA, i motif) CAGCCCCGCTCCCGCCCCCTTCCTCCCGCGCCCGCCCCT
In words: MST, Hill fit. As to conditions: K+ 100 mM KCl plus potassium phosphate; BPES buffer (30 mM phosphate, 1 mM EDTA), pH 5.5.

T1 sequence (P05067 672-713 limits assumed): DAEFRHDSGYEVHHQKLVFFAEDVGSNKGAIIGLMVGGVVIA

Turning to `O=C(CCN1CCOCC1)Nc1ccc2c(c1)c(=O)c1cc(NC(=O)CCN3CCOCC3)ccc1n2-c1ccc2occc2c1` [Compound B14], in test [1], the “ΔTm (CD melting)” value is −3.13 °C. Also, at Aβ1-42, the “CD signal intensity of Aβ1-42” value is listed as “much decreased”. For the same compound, at (G2C4)6 promoter i-motif, the Kd came to 33.3 µM. In test [2], the MDA level result is “reduce the levels of lipid peroxides MDA”; the “levels of antioxidant enzymes” value is “restore the levels of antioxidant enzymes (SOD, GSH-Px, and CAT)”. The KD in test [3] was 1.06 µM.
